Reference: ChEMBL document CHEMBL5506016 (J Med Chem, 2024)
Active and inactive are the calls of the source. The calls are words filed in the database; no cut-off is given here.

Assays:
[1] = target: T1, ADP-sugar pyrophosphatase (Homo sapiens, UniProt Q9UKK9); design: species or system HEK293
[2] = target: T1, ADP-sugar pyrophosphatase; conditions: filed as antagonist

EC50 [1]	Activity [2]	Structure (SMILES)
> 10 µM		CC#CC(=O)N[C@H]1CCCN(c2c(F)cc(C(N)=O)c3[nH]c(C)c(C)c23)C1 [BRANEBRUTINIB]
	Active	Cn1c(=O)c2c(nc(N3CCN(CCCCN)CC3)n2Cc2nnc(-c3ccc(Cl)c(Cl)c3)o2)n(C)c1=O
> 10 µM		CC#CC(=O)N1CCC[C@H]1c1nc(-c2ccc(C(=O)Nc3ccccn3)cc2)c2c(N)nccn12 [ACALABRUTINIB]

Structure (SMILES)	EC50 [1]	Activity [2]
C=CC(=O)N1CCC[C@@H](n2nc(-c3ccc(Oc4ccccc4)cc3)c3c(N)ncnc32)C1 [IBRUTINIB]	1.23 µM	
